We go through 2 substances from patent US10280197B2, “Discovery of the first selective C5A receptor 2 (C5L2/C5AR2) ligands” (The Regents of the University of California, priority 2015, dated 2019).

One assay deals with T1, C5a1-C5a2 heteromer (Homo sapiens, UniProt P21730+Q9P296).
T1 construct: expressed in transfected cells; host or cells: HEK293 (transient)
Briefly: BRET ligand-induced heteromer formation between C5a1 and C5a2. Type of assay: cell-based. As to conditions: P32 or P59 100 μM. Here is the method:
(§1) Assays were performed as a ligand-induced BRET experiment similar to previously described^17, 31, 49. In brief, HEK293 cells were transiently transfected with either C5a1-Rluc8 and β-arrestin 2-Venus or C5a2-Venus and β-arrestin 2-Rluc8 or C5a1-Rluc8 and C5a2-Venus in a 100-mm dish. 24 h after transfection cells were collected and transferred to a 96-well white microplate (Corning, N.Y., USA) in phenol-red free DMEM containing 5% FBS and 25 mM HEPES (Life Technologies). Cells were allowed to settle for 24 h and then were incubated with 30 μM Enduren (Promega, Madison, Wis., USA) for 2 h at 37° C. and 5% CO2 to ensure that the substrate had reached equilibrium. Following incubation BRET baseline measurements were taken for 15 min then ligands were added to plate and BRET measurements were taken for a further 1 h at 37° C. using a POLARstar optima microplate reader (BMG Labtech, Ortenberg, Germany). Filtered light emissions were sequentially measured for 1 s in each of the following windows 460-490 nm and 520-550 nm, both before and following ligand addition. The ligand-induced BRET ratio was calculated by subtracting the ratio of 520-550 nm emission over the 460-490 nm emission for a vehicle-treated sample from a ligand-treated sample of the same aliquot of cells in triplicate. […]

For the next assay, the target named is T2, C3aR (Homo sapiens, UniProt Q16581).
T2 sequence (Q16581 1-482): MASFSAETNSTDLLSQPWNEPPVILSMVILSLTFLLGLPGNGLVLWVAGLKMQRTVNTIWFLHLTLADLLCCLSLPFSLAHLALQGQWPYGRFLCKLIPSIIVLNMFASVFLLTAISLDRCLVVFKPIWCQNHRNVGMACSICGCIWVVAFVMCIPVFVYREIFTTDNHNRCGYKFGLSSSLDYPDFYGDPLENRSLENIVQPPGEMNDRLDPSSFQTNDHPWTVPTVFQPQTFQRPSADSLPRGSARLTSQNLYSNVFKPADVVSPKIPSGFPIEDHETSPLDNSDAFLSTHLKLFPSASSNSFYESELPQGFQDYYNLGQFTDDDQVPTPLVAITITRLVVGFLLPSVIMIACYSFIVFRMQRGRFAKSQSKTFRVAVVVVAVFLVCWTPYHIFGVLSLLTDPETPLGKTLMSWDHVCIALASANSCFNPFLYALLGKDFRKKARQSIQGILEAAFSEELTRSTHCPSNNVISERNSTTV
The settings on record: up to a concentration of 100 μM, reference 27; cited from earlier work.

The target of a further assay is T3, C5aR1 (Homo sapiens, UniProt P21730).
T3 sequence (P21730 1-350): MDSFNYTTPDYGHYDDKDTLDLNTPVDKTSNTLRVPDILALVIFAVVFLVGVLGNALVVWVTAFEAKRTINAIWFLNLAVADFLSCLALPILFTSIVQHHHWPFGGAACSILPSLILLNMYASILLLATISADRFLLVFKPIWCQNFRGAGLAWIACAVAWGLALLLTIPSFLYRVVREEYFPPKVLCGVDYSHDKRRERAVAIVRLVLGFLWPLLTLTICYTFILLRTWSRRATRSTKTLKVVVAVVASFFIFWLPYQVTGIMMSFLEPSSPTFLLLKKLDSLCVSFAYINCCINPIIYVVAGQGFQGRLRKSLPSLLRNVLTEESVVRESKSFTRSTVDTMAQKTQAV
Briefly: 125I-C5a binding to C5aR1 membranes. The settings on record: up to a maximum concentration of 500 μM.

Another assay concerns the target C5a2 (Homo sapiens, UniProt Q9P296). Briefly: BRET C5a2-β-arrestin 2 recruitment assay in HEK293 cells. As to conditions: for efficacy for β-arrestin 2 recruitment relative to affinity for C5a2: EC50 versus Ki; for EC50: calculated at ~40 min after ligand addition; for type of activity for recruitment of β-arrestin 2 via C5a2: compared to C5a. Type of assay: cell-based. More on the design: expressed in transfected cells; host or cells: HEK293 (transient). Here is the method:
Assays were performed as a ligand-induced BRET experiment similar to previously described^17, 31, 49. In brief, HEK293 cells were transiently transfected with either C5a1-Rluc8 and β-arrestin 2-Venus or C5a2-Venus and β-arrestin 2-Rluc8 or C5a1-Rluc8 and C5a2-Venus in a 100-mm dish. 24 h after transfection cells were collected and transferred to a 96-well white microplate (Corning, N.Y., USA) in phenol-red free DMEM containing 5% FBS and 25 mM HEPES (Life Technologies). Cells were allowed to settle for 24 h and then were incubated with 30 μM Enduren (Promega, Madison, Wis., USA) for 2 h at 37° C. and 5% CO2 to ensure that the substrate had reached equilibrium. Following incubation BRET baseline measurements were taken for 15 min then ligands were added to plate and BRET measurements were taken for a further 1 h at 37° C. using a POLARstar optima microplate reader (BMG Labtech, Ortenberg, Germany). Filtered light emissions were sequentially measured for 1 s in each of the following windows 460-490 nm and 520-550 nm, both before and following ligand addition. The ligand-induced BRET ratio was calculated by subtracting the ratio of 520-550 nm emission over the 460-490 nm emission for a vehicle-treated sample from a ligand-treated sample of the same aliquot of cells in triplicate. The BRET ratio was calculated by subtracting the ratio of 520-550 nm emission over the 460-490 nm emission for a cell sample containing the C5a1-Rluc8 or β-arrestin 2-Rluc8 construct from a cell sample containing both the C5a1-Rluc8 and β-arrestin 2-Venus or C5a2-Venus and β-arrestin 2-Rluc8 or C5a1-Rluc8 and C5a2-Venus constructs. Peptides were also tested for ligand-induced β-arrestin 2 recruitment at 100 μM using DiscoveRx PathHunter kits for human C5a1 and C5a2 (DiscoveRx Corporation. Birmingham, UK), according to the manufacturer's instructions.

For a further assay, the target named is T4, C5a1 (Homo sapiens, UniProt P21730).
T4 sequence (P21730 1-350): T3 sequence (P21730 1-350)
As to the kind of experiment: BRET β-arrestin 2 recruitment by C5a1 in HEK293 cells. Type of assay: cell-based. More on the design: expressed in transfected cells; host or cells: HEK293 (transient). The settings on record: P32 or P59 100 μM. Here is the method:
as §1

Assay [1] deals with C5a-induced neutrophil mobilization. Briefly: C5a-induced neutrophil mobilization in C5aR2-/- mice. Type of assay: in vivo, C5aR2-/- mice on a C57BL/6J background. The settings on record: P32 3 mg/kg i.v. with C5a 50 μg/kg, 30 min. Here is the method:
(§2) FIG. 6 is a panel of graphs showing that P32 inhibits C5a-induced neutrophil mobilization in vivo in a C5aR2 dependent manner. Neutrophil mobilization quantified 30 min after i.v. injection of PBS, C5a (50 μg/kg), or P32 (3 mg/kg) with and without C5a present into the femoral vein of either C57BL/6J wild-type (6A) or C5aR2^−/− (6B) on a C57BL/6J background mice. Total circulating leukocyte counts were determined from blood smears and total white blood cell counts using a hemocytometer. Data are representative from at least 6 mice per treatment group and blood smears in triplicate (n=6). Error bars represent SEM. * P<0.05, *** P<0.001 by one-way ANOVA followed by Dunnett's post hoc test
(§3) To further explore the selectivity of the ligands P32 was tested in a mouse model of C5a-induced neutrophil mobilization (FIG. 6). […] Assuming a mouse blood volume of 2 mL for a 25 g mouse, a concentration of 3 mg/kg would result in Cmax blood concentrations of ˜50 uM, a dose within the active range of this compound from our in vitro studies

Assay [2] has the same test system. As to the kind of experiment: C5a-induced neutrophil mobilization in wild-type mice. Type of assay: in vivo, C57BL/6J wild-type mice. The settings on record: P32 3 mg/kg i.v. with C5a 50 μg/kg, 30 min. Here is the method:
as §2, §3

Sequence of C5a2 (Q9P296 whole entry): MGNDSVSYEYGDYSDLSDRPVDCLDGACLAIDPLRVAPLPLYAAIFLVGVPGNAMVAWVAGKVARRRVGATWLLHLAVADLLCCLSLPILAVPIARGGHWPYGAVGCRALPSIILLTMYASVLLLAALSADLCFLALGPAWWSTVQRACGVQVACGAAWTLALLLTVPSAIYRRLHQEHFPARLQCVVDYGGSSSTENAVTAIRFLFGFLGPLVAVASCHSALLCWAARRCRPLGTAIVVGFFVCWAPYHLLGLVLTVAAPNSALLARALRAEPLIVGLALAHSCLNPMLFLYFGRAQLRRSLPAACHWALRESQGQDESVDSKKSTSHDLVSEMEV
Sequence of C5a2 (P32121 whole entry partner): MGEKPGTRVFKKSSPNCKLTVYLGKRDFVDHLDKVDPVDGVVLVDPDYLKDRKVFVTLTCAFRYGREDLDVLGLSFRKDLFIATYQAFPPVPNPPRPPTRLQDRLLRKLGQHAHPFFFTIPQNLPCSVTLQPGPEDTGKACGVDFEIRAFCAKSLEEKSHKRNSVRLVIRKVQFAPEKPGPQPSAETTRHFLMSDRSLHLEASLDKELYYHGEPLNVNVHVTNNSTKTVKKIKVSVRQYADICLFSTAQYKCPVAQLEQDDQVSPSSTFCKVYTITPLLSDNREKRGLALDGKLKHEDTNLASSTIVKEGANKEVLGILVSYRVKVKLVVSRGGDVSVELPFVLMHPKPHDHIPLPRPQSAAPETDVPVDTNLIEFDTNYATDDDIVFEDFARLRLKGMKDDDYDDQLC
T1 sequence (Q9P296 whole entry, one chain of several): as the sequence (Q9P296 whole entry) above

For the substance “Ac-LIRLWR-OH [Peptide P59, Ac-LIRLWR-OH]”, at C5a1-C5a2 heteromer, the “up-regulation of heteromer formation between C5a1-C5a2” value is recorded as “neither P32 or P59 were able to up-regulate heteromer formation”. In addition, the “activity (agonist or antagonist) at C3aR” value at C3aR is given as “no activity”. Besides, the “inhibition of 125I-C5a binding to C5aR1 membranes, full concentration response” value at C5aR1 was “dose-dependently inhibited”. At C5a2, the “C5a2-β-arrestin 2 BRET Recruitment (% of C5a)” value is recorded as 52.9 % of C5a, the “efficacy for β-arrestin 2 recruitment relative to affinity for C5a2” value is around 6 fold, the EC50 is 7.6 ± 0.6 µM and the “type of activity for recruitment of β-arrestin 2 via C5a2” value is on record as “partial agonists”. Besides, the “β-arrestin 2 recruitment via C5a1” value on C5a1 was “Neither, P32 or P59 could recruit β-arrestin 2 via C5a1”.
As for “Ac-RHYPYWR-OH [Peptide P32, Ac-RHYPYWR-OH]”, the “inhibition of C5a-induced neutrophil mobilization” value in assay [1] is listed as “attenuated”. In addition, the “up-regulation of heteromer formation between C5a1-C5a2” value on C5a1-C5a2 heteromer is listed as “neither P32 or P59 were able to up-regulate heteromer formation”. At C3aR, the “activity (agonist or antagonist) at C3aR” value is “no activity”. In assay [2], the “inhibition of C5a-induced neutrophil mobilization” value is recorded as “significantly inhibit”. On C5aR1, the “inhibition of 125I-C5a binding to C5aR1 membranes, full concentration response” value is on record as “dose-dependently inhibited”. Further, on C5a2, the “C5a2-β-arrestin 2 BRET Recruitment (% of C5a)” value is reported as 28.8 % of C5a, the “efficacy for β-arrestin 2 recruitment relative to affinity for C5a2” value is reported as around 37 fold, the EC50 is 5.9 ± 3.4 µM and the “type of activity for recruitment of β-arrestin 2 via C5a2” value is “partial agonists”. Besides, on C5a1, the “β-arrestin 2 recruitment via C5a1” value is “Neither, P32 or P59 could recruit β-arrestin 2 via C5a1”.
